{"source": "patent US8110545B2", "about": "“Non-proteolysable oligopeptides that inhibit glycoprotein GP41 of the aids virus” (priority 2005, dated 2012)", "biological_target": "T1, gp41 of HIV-1 (Human immunodeficiency virus type 1 group M subtype B, UniProt P03375)", "T1 construct": "cell-cell fusion induced by gp41 of HIV-1 expressed in CHO cells; expressed in transfected cells; host or cells: CHO cells (effector), co-cultured with CD4-expressing HeLa cells (target)", "T1 sequence (P03375 512-856)": "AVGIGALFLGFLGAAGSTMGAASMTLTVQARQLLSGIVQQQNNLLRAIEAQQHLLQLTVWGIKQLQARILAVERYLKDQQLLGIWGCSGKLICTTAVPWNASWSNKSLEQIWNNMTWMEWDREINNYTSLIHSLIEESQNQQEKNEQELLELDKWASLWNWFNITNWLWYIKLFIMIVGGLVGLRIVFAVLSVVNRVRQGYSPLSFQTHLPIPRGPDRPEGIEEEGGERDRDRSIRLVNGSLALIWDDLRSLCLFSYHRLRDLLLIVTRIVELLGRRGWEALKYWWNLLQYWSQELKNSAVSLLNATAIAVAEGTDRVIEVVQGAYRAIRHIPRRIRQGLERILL", "type": "cell-based, HIV-1 (BH10 isolate)", "settings": "20 nM T-20, positive inhibition control, 37° C., 16 hours", "description": "The effect has been measured as the inhibition of cell-cell fusion induced by gp41 of HIV-1 expressed in CHO cells, which takes place when they are mixed with CD4 receptor-expressing HeLa cells (BH10 isolate: Gene Bank access number M15654). The oligopeptide concentration was 5 μM and the temperature was 37° C. Incubation in the cell culture medium (GMEM-S supplemented with 1 mM sodium pyruvate and 0.4 mM methionine sulfoximine) was performed for 16 hours. The bars correspond to the number of nuclei in syncytial plates (fused cells with more than 4 nuclei) per field after this time. The means of 4 individual measurements plus the standard deviations are shown.\nAs a positive inhibition control, cells treated with 20 nM of T-20 (enfuvirtide) are shown. The sample, in the sole presence of gqidev, was processed following the protocol described in the preceding figure.\nThe lines represent adjustments to hyperbolic-type functions. The assay, in the presence of increasing quantities of oligopeptides, was performed and quantified in accordance with the description of FIG. 3. […]\nIt was added, at a concentration of 5 μM (micromolar), to the cell culture medium (GMEM-S supplemented with 1 mM sodium pyruvate and 0.4 mM methionine sulfoximine). […] The activity of gp41 is detected by the formation of multi-nucleated cells (CTL panel) produced by the fusion of the plasma membranes."}
{"substance": "enfuvirtide", "values": [{"measurement": "inhibitory effect on gp41 activity (cell-cell fusion, formation of syncytia)", "value": "comparable inhibition of gp41"}]}
